What was measured:
VIM-1 = VIM-1 (Pseudomonas aeruginosa, UniProt A0A0F7KYQ8); assay: Enzyme activity: determination of IC50, fluorescence assay with CCF2-FA substrate; assay type: biochemical; conditions: enzyme 30 pM, CCF2-FA 1.25 μM, 2 hours at 25° C.; read-out: VIM1 IC50
Summary of the method: (§1)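 Read-out: fluorescence, ex 405 nm / em 460 nm, after 2 h at 25° C with 1.25 μM CCF2-FA. Buffer 100 mM KH2PO4 pH 7, 0.005% Tween-20, 10 μM ZnSO4; enzyme 1 pM NDM-1, 2 pM IMP-1, 30 pM VIM-1. IC50 by 4-parameter fit.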

NDM-1 = NDM-1 (Klebsiella pneumoniae, UniProt C7C422); assay: as above; assay type: biochemical; conditions: enzyme 1 pM, CCF2-FA 1.25 μM, 2 hours at 25° C.; read-out: NDM1 IC50
Summary of the method: as §1

IMP-1 = IMP-1 (Serratia marcescens, UniProt P52699); assay: as above; assay type: biochemical; conditions: enzyme 2 pM, CCF2-FA 1.25 μM, 2 hours at 25° C.; read-out: IMP1 IC50
Summary of the method: as §1

[1] = test system: Klebsiella pneumoniae expressing VIM-1 (IHMA599644); assay: Antibiotic potentiation activity: synergistic concentration (MITC95) with imipenem, growth by OD600; assay type: cell-based; conditions: 95% inhibition of bacterial growth, strain IHMA599644
Summary of the method: (§2)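 Strains grown overnight at 35° C, resuspended in saline, diluted 1:100 into 1.1×CAMHB; imipenem at 1 μg/ml or 4 μg/ml with test compound 200 μM to 0.195 μM. Incubated 22 hours to 24 hours at 35° C, OD600 read; MITC95 is lowest compound concentration inhibiting 95% of growth.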

[2] = test system: Escherichia coli expressing NDM-1 (CLB30005); assay: as above; assay type: cell-based; conditions: 95% inhibition of bacterial growth, strain CLB30005
Summary of the method: as §2

[3] = test system: Serratia marcescens expressing IMP-1 (CL5741); assay: as above; assay type: cell-based; conditions: 95% inhibition of bacterial growth, strain CL5741
Summary of the method: as §2

Sequence of IMP-1 (P52699 19-246, looked up, species assumed): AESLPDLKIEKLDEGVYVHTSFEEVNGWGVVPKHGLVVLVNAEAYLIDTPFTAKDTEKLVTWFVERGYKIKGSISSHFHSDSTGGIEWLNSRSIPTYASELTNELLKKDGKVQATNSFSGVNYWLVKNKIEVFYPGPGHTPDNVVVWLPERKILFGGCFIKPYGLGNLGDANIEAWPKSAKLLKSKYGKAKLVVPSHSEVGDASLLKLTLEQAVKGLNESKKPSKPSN
Sequence of NDM-1 (C7C422 29-270, looked up, species assumed): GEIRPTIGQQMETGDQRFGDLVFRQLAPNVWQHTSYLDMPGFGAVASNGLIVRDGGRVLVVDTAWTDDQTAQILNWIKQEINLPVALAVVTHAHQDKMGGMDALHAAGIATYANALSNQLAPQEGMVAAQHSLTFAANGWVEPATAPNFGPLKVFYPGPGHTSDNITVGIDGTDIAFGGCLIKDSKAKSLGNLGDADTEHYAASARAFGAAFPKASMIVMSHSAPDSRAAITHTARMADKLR

Structure (SMILES) | IC50 (VIM-1) [nM] | IC50 (NDM-1) [nM] | IC50 (IMP-1) [nM] | VIM1 KP599644 MITC95 [1] [µM] | NDM1 EC30005 MITC95 [2] [µM] | IMP1 SM5741 MITC95 [3] [µM]
CCC[C@H](C(=O)O)[C@H](Cc1ccc(-c2cnc(N(C)S(C)(=O)=O)nc2)cc1)c1nnn[nH]1 [Example 242, (2S)-2-[(1S)-2-(4-{2-[methyl(methyl-sulfonyl)amino]pyrimidin-5-yl}phenyl)-1-(1H-tetrazol-5-yl)ethyl]pentanoic acid] | 1.6 | 9.3 | 70 | 100 | 38 | 12.5
CCCC[C@@H](C(=O)O)[C@@H](Cc1ccc(-c2c(C)nn(C)c2C)cc1)c1nn[nH]n1 [Example 185, (2R)-2-{(1R)-1-(2H-tetrazol-5-yl)-2-[4-(1,3,5-trimethyl-1H-pyrazol-4-yl)phenyl]ethyl}hexanoic acid] | 740 | 880 | 11 | >200 | >200 | 100
CCC[C@H](C(=O)O)[C@H](Cc1ccc(-c2cnc(N3CCCCC3)s2)cc1)c1nn[nH]n1 [Example 204, (2S)-2-[(1S)-2-[4-(2-piperidin-1-yl-1,3-thiazol-5-yl)phenyl]-1-(2H-tetrazol-5-yl)ethyl]pentanoic acid] | 2.1 | 3.4 | 26 | 100 | 3.9 | 4.7
CCC[C@H](C(=O)O)[C@H](Cc1ccc(-c2ccc3c(c2)CNCC3)cc1)c1nnn[nH]1 [Example 236, (2S)-2-[(1S)-2-[4-(1,2,3,4-tetrahydroisoquinolin-7-yl)phenyl]-1-(1H-tetrazol-5-yl)ethyl]pentanoic acid] | 4.4 | 99 | 71 | 50 | 12.5 | 7.8
CCC[C@H](C(=O)O)[C@H](Cc1ccc(-c2cncc(N3CCN(C)CC3)c2)cc1)c1nn[nH]n1 [Example 190, (2S)-2-[(1S)-2-{4-[5-(4-methylpiperazin-1-yl)pyridin-3-yl]phenyl}-1-(2H-tetrazol-5-yl)ethyl]pentanoic acid] | 5.4 | 110 | 610 | 75 | 9.4 | 38
O=C(O)[C@@H](CC(F)F)[C@H](Cc1ccccc1)c1nnn[nH]1 [Example 22, (2S,3S)-2-(2,2-difluoroethyl)-4-phenyl-3-(1H-tetrazol-5-yl)butanoic acid] | 14 | 280 | 2600 | 50 | 31 | 200
CCCCC(C(=O)O)[C@@H](Cc1ccc(-c2ccc(S(C)(=O)=O)cc2)cc1)c1nn[nH]n1 (stereo in doubt) [Example 183, (2R)-2-[(1R)-2-[4′-(methylsulfonyl)biphenyl-4-yl]-1-(2H-tetrazol-5-yl)ethyl]hexanoic acid] | 700 | 660 | 200 | >200 | >200 | >200
O=C(O)[C@@H](CCCCO)[C@H](Cc1ccccc1)c1nnn[nH]1 [Example 32, (S)-6-hydroxy-2-((S)-2-phenyl-1-(1H-tetrazol-5-yl)ethyl)hexanoic acid] | 240 | 720 | 5000 | 200 | 75 | >200
CC(C)C[C@H](C(=O)O)[C@@H](c1nnn[nH]1)[C@H](C)c1ccccc1 [Example 27, (2S,3S,4S)-2-isobutyl-4-phenyl-3-(1H-tetrazol-5-yl)pentanoic acid] | 7.7 | 16 | 62 | 37.5 | 15.6 | 13
CCC[C@H](C(=O)O)[C@H](Cc1ccc(-c2cnc(N3CCCC3)s2)cc1)c1nn[nH]n1 [Example 196, (2S)-2-[(1S)-2-[4-(2-pyrrolidin-1-yl-1,3-thiazol-5-yl)phenyl]-1-(2H-tetrazol-5-yl)ethyl]pentanoic acid] | 4.1 | 9.5 | 45 | 125 | 7.8 | 14
CCC[C@H](C(=O)O)[C@H](Cc1ccc(-c2ccc(CO)cc2)cc1)c1nn[nH]n1 [Example 211, (2S)-2-[(1S)-2-[4′-(hydroxymethyl)biphenyl-4-yl]-1-(2H-tetrazol-5-yl)ethyl]pentanoic acid] | 3.4 | 12 | 20 | 25 | 3.1 | 2.3
N#CCCCC[C@H](C(=O)O)[C@H](Cc1ccccc1)c1nnn[nH]1 [Example 33, (S)-6-cyano-2-((S)-2-phenyl-1-(1H-tetrazol-5-yl)ethyl)hexanoic acid] | 110 | 390 | 2100 | >200 | 75 | 50
CCC[C@H](C(=O)O)[C@H](Cc1ccc(-c2cccc(CN)c2)cc1)c1nn[nH]n1 [Example 210, (2S)-2-[(1S)-2-[3′-(aminomethyl)biphenyl-4-yl]-1-(2H-tetrazol-5-yl)ethyl]pentanoic acid] | 8.2 | 100 | 130 | 18.8 | 6.2 | 12.5
CCC[C@H](C(=O)O)[C@H](Cc1ccc(-c2cccc(CN3CCOCC3)c2)cc1)c1nn[nH]n1 [Example 207, (2S)-2-[(1S)-2-[3′-(morpholin-4-ylmethyl)biphenyl-4-yl]-1-(2H-tetrazol-5-yl)ethyl]pentanoic acid] | 8 | 64 | 100 | 150 | 16 | 16
CCC[C@H](C(=O)O)[C@H](Cc1ccc(C(N)=O)cc1)c1nn[nH]n1 [Example 45, (S)-2-((S)-2-(4-carbamoylphenyl)-1-(2H-tetrazol-5-yl)ethyl)pentanoic acid] | 3.3 | 93 | 850 | 25 | 4.2 | 37.5
O=C(O)[C@@H](CCC1CCCCC1)[C@H](Cc1ccccc1)c1nnn[nH]1 [Example 11, (2S,3S)-2-(2-cyclohexylethyl)-4-phenyl-3-(1H-tetrazol-5-yl)butanoic acid] | 34 | 57 | 230 | >200 | 25 | 27
CCC[C@H](C(=O)O)[C@H](Cc1ccc(-c2csc(N3CCOCC3)n2)cc1)c1nn[nH]n1 [Example 208, (2S)-2-[(1S)-2-[4-(2-morpholin-4-yl-1,3-thiazol-4-yl)phenyl]-1-(2H-tetrazol-5-yl)ethyl]pentanoic acid] | 16 | 61 | 100 | 200 | 25 | 18.8
